Like-named read-outs stand apart in the source and are kept apart here. Bounds are passed on as bounds.

In one test the test system is VM48 melanoma cells. As to the kind of experiment: MTT colorimetric assay, overall cell growth, VM48. In kind it is cell-based, human. Conditions: Homo sapiens, read-out: In Vitro IC50 Growth Inhibitory Values, VM48.
For another test, the target named is T1, Aurora C kinase (Homo sapiens, UniProt Q9UQB9).
T1 construct: made in house
T1 sequence (Q9UQB9 1-309): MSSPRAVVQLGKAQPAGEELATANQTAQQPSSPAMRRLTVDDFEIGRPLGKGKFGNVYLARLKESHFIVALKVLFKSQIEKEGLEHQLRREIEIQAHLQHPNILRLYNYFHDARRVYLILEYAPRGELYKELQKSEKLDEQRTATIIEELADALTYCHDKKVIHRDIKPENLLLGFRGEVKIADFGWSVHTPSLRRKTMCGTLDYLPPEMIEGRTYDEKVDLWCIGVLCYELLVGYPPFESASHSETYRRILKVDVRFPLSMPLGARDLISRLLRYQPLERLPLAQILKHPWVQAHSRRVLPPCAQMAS
Briefly: Radiometric protein kinase assay (33 PanQinase), Aurora C. Format: biochemical. Conditions: for IC50: dose-response 0-100 μM, n=3, read-out: IC50: Concentration of drug needed in order to inhibit kinase activity by 50%, AurC; for inhibition at 57 µM: read-out: inhibition of Aurora C activity. The method, then:
(§1) Note that at a concentration of 20 μM of the DLT compounds, the activity of the three Aurora kinases is reduced by approximately 40-50%, whereas at concentrations of 50 μM, i.e. the concentration used in the anti-proliferation assays of example 2B, the activity of said kinases is reduced by 60-75%.
(§2) The kinase inhibition profile of DLT95-Cl at 20 μM was determined using 255 protein kinases. Residual activity values were measured by testing each compound at one concentration in duplicate in each kinase assay. A radiometric protein kinase assay (33 PanQinase®Activity Assay) was used for measuring the kinase activity of 250 protein kinases. All kinase assays were performed in 96-well flashPlates™ from Perkin Elmer (Boston, Mass., USA) in a 50 μl reaction volume. The reaction cocktail was pipetted in 4 steps in the following order: • 10 μl of non-radioactive ATP solution (in H2O) • 25 μl of assay buffer/[γ-33P]-ATP mixture • 5 μl of test sample in 10% DMSO • 10 μl of enzyme/substrate mixture
(§3) The assay for all enzymes contained 60 mM HEPES-NaOH, pH 7.5, 3 mM MgCl2, 3 mM MnCl2, 3 μM Na-orthovanadate, 1.2 mM DTT, 50 μg/ml PEG20000, 1 μM ATP/[γ-33P]-ATP (approx. […] per well), protein kinase, and substrate. All PKC assays (except the PKC-mu and the PKC-nu assay) additionally contained 1 mM CaCl2, 4 mM EDTA, 5 μg/ml Phosphatidylserine and 1 μg/ml 1,2-Dioleyl-glycerol. The MYLK2, CAMK1D, CAMK2A, CAMK2B, CAMK2D, CAMK4, CAMKK2, DAPK2 and EEF2K assays additionally contained 1 μg/ml Calmodulin and 0.5 mM CaCl2. The PRKG1 and PRKG2 assays additionally contained 1 μM cGMP.
(§4) The protein kinases were expressed either in Sf9 insect cells or in E. coli as recombinant GST-fusion proteins or as His-tagged proteins. All kinases were produced from human cDNAs. Kinases were purified by affinity chromatography using either GSH-agarose (Sigma) or Ni-NTH-agarose (Qiagen). The purity of the protein kinases was examined by SDS-PAGE/coomassie staining. The identity of the protein kinases was checked by mass spectroscopy.
(§5) The reaction cocktails were incubated at 30° C. for 60 minutes. The reaction was stopped with 50 μl of 2% (v/v) H3PO4, plates were aspirated and washed two times with 200 μl 0.9% (w/v) NaCl. All assays were performed with a BeckmanCoulter Biomek 2000/SL robotic system.
(§6) Incorporation of ^33Pi (counting of “cpm”) was determined with a microplate scintillation counter (Microbeta, Wallac).
(§7) For each kinase, the median value of the cpm of three wells with complete reaction cocktails, but without kinase, was defined as “low control” […]. This value reflects unspecific binding of radioactivity to the plate in the absence of protein kinase but in the presence of the substrate. Additionally, for each kinase the median value of the cpm of three other wells with the complete reaction cocktail, but without any compound, was taken as the “high control”, i.e. full activity in the absence of any inhibitor […]. The difference between high and low control of was taken as 100% activity for each kinase. As part of the data evaluation the low control value of each kinase was subtracted from the high control value as well as from their corresponding “compound values”. The residual activity (in %) for each compound well was calculated by using the following formula: Res. Activity (%)=100×[(cpm of compound−low control)/(high control−low control)]

The next test concerns the target T2, Aurora A kinase (Homo sapiens, UniProt O14965).
T2 construct: made in house
T2 sequence (O14965 1-403): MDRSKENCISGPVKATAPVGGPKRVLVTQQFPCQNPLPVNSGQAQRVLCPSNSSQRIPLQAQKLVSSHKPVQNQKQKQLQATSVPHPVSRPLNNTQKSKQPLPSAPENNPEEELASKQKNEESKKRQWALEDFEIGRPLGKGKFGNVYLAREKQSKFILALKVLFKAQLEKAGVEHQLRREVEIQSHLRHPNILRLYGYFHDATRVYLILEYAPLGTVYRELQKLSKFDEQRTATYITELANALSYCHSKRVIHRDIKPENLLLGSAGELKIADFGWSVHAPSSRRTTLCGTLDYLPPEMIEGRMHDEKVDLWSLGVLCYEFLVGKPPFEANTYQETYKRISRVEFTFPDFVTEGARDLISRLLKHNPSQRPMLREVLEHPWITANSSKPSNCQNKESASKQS
As to the kind of experiment: Radiometric protein kinase assay (33 PanQinase), Aurora A. Format: biochemical. Conditions: for IC50: dose-response 0-100 μM, n=3, read-out: IC50: Concentration of drug needed in order to inhibit kinase activity by 50%, AurA; for inhibition at 57 µM: read-out: inhibition of Aurora A activity. Here is the method:
as §1, §2, §3, §4, §5, §6, §7

For `COc1cc(C(=O)OCCCCCCOC(=O)c2ccc(O)c(OC)c2)ccc1O` [DLT11, Hexane-1,6-diyl bis-(4-hydroxy-3-methoxybenzoate)], in the test with VM48 melanoma cells (MTT, 72 hours of incubation), the IC50 is 56 µM.

For the compound `O=C(OCc1cc(COC(=O)c2ccc(O)c(Cl)c2)cc(COC(=O)c2ccc(O)c(Cl)c2)c1)c1ccc(O)c(Cl)c1` [DLT95-Cl, [3,5-bis[(4-hydroxy-3-chloro-benzoyl)oxymethyl]phenyl]methyl 4-hydroxy-3-chloro-benzoate], the values for the IC50 on Aurora C kinase, in the test on VM48 melanoma cells (72 h) and at Aurora A kinase were 1.8 µM, 32 µM and 1.7 µM, respectively. Further, the inhibition at 57 µM on Aurora C kinase and at Aurora A kinase was not below 50% each time.

With `COc1cc(C(=O)OCc2cc(COC(=O)c3ccc(O)c(OC)c3)cc(COC(=O)c3ccc(O)c(OC)c3)c2)ccc1O` [DLT95, [3,5-bis[(4-hydroxy-3-methoxy-benzoyl)oxymethyl]phenyl]methyl 4-hydroxy-3-methoxy-benzoate], the IC50 on Aurora C kinase came to 3.3 µM; at Aurora A kinase it was 9.1 µM.

`COc1cc(C(=O)OCCOC(=O)c2ccc(O)c(OC)c2)ccc1O` [DLT1, Ethane-1,2-diyl bis-(4-hydroxy-3-methoxybenzoate)]: the IC50 with VM48 melanoma cells (MTT, 72 hours of incubation) turned out to be 53 µM.

As for `O=C(OCc1cc(COC(=O)c2ccc(O)c(F)c2)cc(COC(=O)c2ccc(O)c(F)c2)c1)c1ccc(O)c(F)c1` [DLT95-F, [3,5-bis[(4-hydroxy-3-fluoro-benzoyl)oxymethyl]phenyl]methyl 4-hydroxy-3-fluoro-benzoate], the IC50 on Aurora C kinase came out at 4.7 µM; in the test on VM48 melanoma cells (72 h), 61 µM; on Aurora A kinase, 3.2 µM. Besides, the inhibition at 57 µM at Aurora C kinase and on Aurora A kinase was not below 50% throughout.

With `COc1cc(C(=O)O)ccc1O` [vanillic acid, reference compound], the IC50 at Aurora C kinase is more than 100 µM; in the test with VM48 melanoma cells (MTT, 72 hours of incubation) it was more than 1000 µM; on Aurora A kinase it was more than 100 µM.

(Values after US20110280940A1, “Di-Vanilloyl And Tri-Vanilloyl Derivatives For Use In Anti-Cancer Therapy” (priority 2008, published 2011).)
